Results: patent US20130288897A1, “SYNERGISTIC PESTICIDAL COMPOSITIONS” (Dow AgroSciences LLC, priority 2012, published 2013)
“And” between values parts separate entries of the source, which are not always exact repeats. Identical values can stand only once.

Key:
Assay type in all cases: in vivo
[1] = system: cotton aphid (CA) Aphis gossypii; experiment: Cotton aphid track-sprayer test on cotton: Compound A or imidacloprid with glufosinate (Liberty) and AMS (Example XVII); settings: for Colby Predicted Values Ave: combination with glufosinate
Procedure: (§1) Glyphosate resistant cotton plants (Gossypium hirsutum, cv ‘DP493’) were trimmed to 1 true leaf and infested with mixed stages of cotton aphid (CA) Aphis gossypii 24 h prior to application. Mixed developmental stage CA were infested onto the upper surface of each treated leaf by transferring infested foliage from an insectary colony. Each plant was infested with approximately equal numbers of CA based on visual estimation of aphid density on the infested material. Infested plants were held in the growth chamber (L:D 16:8 and 25° C.). Glufosinate (Liberty®, Bayer CropScience, Monheim am Rhein, Germany) was mixed with water at a rate equivalent to 5 ml/L (0.4 qt/Ac). […] High rate Compound A concentrations were created by diluting Compound A technical material with acetone to achieve a 10 ppm solution. […] […] […] Nozzle height above the canopy was held constant at ca. 30 cm. Plants were evaluated after 3 days from the time of infestation by counting all live cotton aphids on each plant.
TABLE 6 contains the calculated Colby values for combinations of treatments as well as the outcome of statistical evaluations between predicted (Colby) and actual measured values. These T-test statistics were only calculated for the 0.2 and 0.05 g/Ha rates. […] These same trends were apparent when Compound A was applied with both glufosinate and AMS.

[2] = system: cotton aphid (CA) Aphis gossypii; experiment: Cotton aphid track-sprayer test on cotton: Compound A or imidacloprid with Glyphomax Plus (glyphosate) and AMS (Example XV)
Procedure: Glyphosate resistant cotton plants (Gossypium hirsutum, cv ‘DP493’) were trimmed to 1 true leaf and infested with mixed stages of cotton aphid (CA) Aphis gossypii 24 h prior to application. Mixed developmental stage CA were infested onto the upper surface of each treated leaf by transferring infested foliage from an insectary colony. Each plant was infested with approximately equal numbers of CA based on visual estimation of aphid density on the infested material. Infested plants were held in the growth chamber (L:D 16:8 and 25° C.). Glyphosate (Glyphomax Plus, Dow AgroSciences, LLC, Indianapolis, Ind.) was mixed with water at a rate equivalent to 32 oz/Ac/20 gallons. […] High rate Compound A concentrations were created by diluting Compound A technical material with acetone to achieve a 10 ppm solution. […] When applied through a track sprayer calibrated to 200 L/Ha these concentrations generated use rates of 0.2, 0.04 and 0.008 g/Ha. […] Nozzle height above the canopy was held constant at ca. 30 cm. Plants were evaluated after 3 days from the time of infestation by counting all live cotton aphids on each plant.
For the purposes of this experiment, the compositions having lower rates of the insecticide were not analyzed. Percent control for all treatments was calculated using the rep average for the untreated plants. […] For all tests, measured efficacy (% Control) data were compared to calculated Colby values (Colby, S. R. 1967. Calculating Synergistic and Antagonistic Responses of Herbicide Combinations. Weeds 15:20-22) using a 2 sided T-test (Minitab). […] The formula used to calculate the Colby value for mixtures of Compound A and either herbicide or AMS was:
The formula was adapted for compositions including Compound A, herbicide and AMS as follows: […]

[3] = system: cotton aphid (CA) Aphis gossypii; experiment: Cotton aphid track-sprayer test on cotton: Compound A or imidacloprid with Durango (glyphosate) or Durango Blank and AMS (Example XVI); settings: for % Control (Negatives to zero) Ave / % control Ave / Colbv predicted values Ave: average of 5 reps
Procedure: as §1, with “C.). Glyphosate (Durango®, Dow AgroSciences, LLC, Indianapolis, Ind.)” for “C.). Glufosinate (Liberty®, Bayer CropScience, Monheim am Rhein, Germany)”, “to 15” for “to 5”, “ml/L (1.2” for “ml/L (0.4”, “qt/Ac). […] A glyphosate free formulation of Durango® was prepared using these same mixing instructions.” for “qt/Ac).”
[…] Percent control for all treatments was calculated using the rep average for the untreated plants.

[4] = 0.0125 g insecticide/Ha with Durango 0.015 ml/ml + AMS 18 g/L
[5] = 0.0125 g insecticide/Ha with Durango 0.015 ml/ml
[6] = 0.0125 g insecticide/Ha with Durango Blank 0.015 ml/ml + AMS 18 g/L
[7] = 0.0125 g insecticide/Ha with Durango Blank 0.015 ml/ml
[8] = 0.05 g insecticide/Ha with Durango 0.015 ml/ml + AMS 18 g/L
[9] = 0.05 g insecticide/Ha with Durango 0.015 ml/ml
[10] = 0.05 g insecticide/Ha with Durango Blank 0.015 ml/ml + AMS 18 g/L
[11] = 0.05 g insecticide/Ha with Durango Blank 0.015 ml/ml
[12] = 0.2 g insecticide/Ha with Durango 0.015 ml/ml + AMS 18 g/L
[13] = 0.2 g insecticide/Ha with Durango 0.015 ml/ml
[14] = 0.2 g insecticide/Ha with Durango Blank 0.015 ml/ml + AMS 18 g/L
[15] = 0.2 g insecticide/Ha with Durango Blank 0.015 ml/ml

## O=[N+]([O-])NC1=NCCN1Cc1ccc(Cl)nc1 [Imidacloprid, imidacloprid, reference compound]
[1]; 0.0125 g In./Ha + glufosinate 0.005 ml/ml
  % control AVE: 66.5%
[1]; 0.0125 g In./Ha
  Colby Predicted Values Ave: 53.6
[1]; 0.05 g In./Ha + glufosinate 0.005 ml/ml
  % control AVE: 51.2%
[1]; 0.05 g In./Ha
  Colby Predicted Values Ave: 53.8
[1]; 0.2 g In./Ha + glufosinate 0.005 ml/ml
  % control AVE: 58.2%
[1]; 0.2 g In./Ha
  Colby Predicted Values Ave: 59.6
[1]; insecticide applied together with glufosinate
  synergy assessment (measured vs predicted Colby values): not different from the calculated additive values
[1]; insecticide with glufosinate and AMS
  synergy assessment (measured vs predicted Colby values): No evidence of synergy
[2]; insecticide with AMS and herbicide (Glyphomax Plus)
  synergy assessment (measured control vs Colby values): not improved compared to imidacloprid alone
[2]; insecticide with the herbicide (Glyphomax Plus)
  synergy assessment (measured control vs Colby values): not present
[3]; [4]
  % Control (Negatives to zero) Ave: 26.3%
  % control Ave: 26.3%
  Colbv predicted values Ave: 42.0
[3]; [5]
  % Control (Negatives to zero) Ave: 17.2%
  % control Ave: −0.3%
  Colbv predicted values Ave: 35.1
[3]; [6]
  % Control (Negatives to zero) Ave: 24.7%
  % control Ave: −1.1%
  Colbv predicted values Ave: 51.7
[3]; [7]
  % Control (Negatives to zero) Ave: 15.1%
  % control Ave: −17.6%
  Colbv predicted values Ave: 33.8
[3]; 0.0125 g insecticide/Ha, no herbicide, no AMS
  % control Ave: 15.1%
[3]; 0.05 g insecticide/Ha with Durango 0.015 ml/ml + AMS 18 g/L, Rep 1-5, listed as lmidacloprid
  CA Counts: 49 and 50 and 71 and 64 and 54
[3]; [8]
  % Control (Negatives to zero) Ave: 37.3%
  % control Ave: 37.3%
  Colbv predicted values Ave: 46.5
[3]; [9]
  % Control (Negatives to zero) Ave: 25.4%
  % control Ave: 21.8%
  Colbv predicted values Ave: 38.2
[3]; 0.05 g insecticide/Ha with Durango Blank 0.015 ml/ml + AMS 18 g/L, Rep 1-5, listed as lmidacloprid
  CA Counts: 82 and 81 and 108 and 73 and 95
[3]; [10]
  % Control (Negatives to zero) Ave: 11.2%
  % control Ave: 5.6%
  Colbv predicted values Ave: 58.0
[3]; [11]
  % Control (Negatives to zero) Ave: 24.8%
  % control Ave: 20.1%
  Colbv predicted values Ave: 41.2
[3]; 0.05 g insecticide/Ha, no herbicide, no AMS
  % control Ave: 29.9%
[3]; 0.2 g insecticide/Ha with Durango 0.015 ml/ml + AMS 18 g/L, Rep 1-5, listed as lmidacloprid
  Colbv predicted values: 88.5 and 68.2 and 93.5 and 56.2 and 48.8
[3]; [12]
  % Control (Negatives to zero) Ave: 30.8%
  % control Ave: 23.9%
  Colbv predicted values Ave: 71.0
[3]; 0.2 g insecticide/Ha with Durango 0.015 ml/ml, Rep 1-5, expected additive control, listed as lmidacloprid
  Colbv predicted values: 74.5 and 68.6 and 84.8 and 56.2 and 48.8
[3]; [13]
  % Control (Negatives to zero) Ave: 45.5%
  % control Ave: 45.5%
  Colbv predicted values Ave: 66.6
[3]; 0.2 g insecticide/Ha with Durango Blank 0.015 ml/ml + AMS 18 g/L, Rep 1-5, listed as lmidacloprid
  Colbv predicted values: 96.1 and 88.7 and 75.9 and 68.4 and 48.8
[3]; [14]
  % Control (Negatives to zero) Ave: 32.2%
  % control Ave: 27.3%
  Colbv predicted values Ave: 75.2
[3]; 0.2 g insecticide/Ha with Durango Blank 0.015 ml/ml, Rep 1-5, listed as lmidacloprid
  Colbv predicted values: 84.2 and 67.7 and 71.9 and 56.2 and 48.8
[3]; [15]
  % Control (Negatives to zero) Ave: 55.3%
  % control Ave: 55.3%
  Colbv predicted values Ave: 65.7
[3]; 0.2 g insecticide/Ha, co-applied with AMS and Durango
  synergy assessment (measured vs predicted additive Colby values): antagonism of imidacloprid activity
[3]; 0.2 g insecticide/Ha, no herbicide, no AMS, Rep 1-5, live aphids per plant after 3 days, listed as lmidacloprid
  CA Counts: 30 and 51 and 44 and 32 and 38
[3]; 0.2 g insecticide/Ha, no herbicide, no AMS, Rep 1-5, vs rep average of untreated plants, listed as lmidacloprid
  % control: 74.5% and 50.4% and 61.1% and 56.2% and 48.8%
[3]; 0.2 g insecticide/Ha, no herbicide, no AMS
  % control Ave: 58.2%
[3]; 0.2 g insecticide/Ha, only Durango mixed
  synergy assessment (measured vs predicted additive Colby values): no effects
[3]; 0.2 g insecticide/Ha, with Durango blank and AMS
  synergy assessment (measured vs predicted additive Colby values): antagonistic effect
[3]; 0.2 g insecticide/Ha, with Durango blank formulation
  synergy assessment (measured vs predicted additive Colby values): no significant difference between predicted and measured activity
